In patent US7868026B2, “Therapeutic compounds” (Pfizer Inc., priority 2005, dated 2011):
Read-outs that look alike come from different tables or passages of the source.

How the values were obtained:
Format in all cases: biochemical
CYP3A4 [1] = target: T1, CYP3A4 (Homo sapiens, UniProt P08684); test: Determination of compound Kiapp against recombinant CYP3A4 enzyme (BFC fluorescent substrate)
How it was run: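 Recombinant CYP3A4 (5.5 or 8 nM, with or without b5 depending on source) pre-incubated with inhibitor ≥30 min at room temperature in 100 mM sodium phosphate pH 7.0, 5 mM TCEP, 2% DMF. Reaction started with 200 uM NADPH and 5 uM BFC; initial fluorescence rates over 5 min fitted to Morrison tight-binding (non-partial) or Szedlacsek (partial) equations for Kiapp.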

CYP3A4 [2] = target: T1, CYP3A4; test: Determination of IC50 against CYP3A4 by measurement of inhibition of testosterone metabolism (human liver microsomes, 6-β-OH-testosterone by LC-MS/MS); parameters: 0.1 mg/mL human liver microsomes; conditions: read-out: IC50 (Testo.)
How it was run: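 Human liver microsomes (0.1 mg/mL) incubated with 25 μM testosterone and 1 mM NADPH in 100 mM potassium phosphate, pH 7.4, for eight minutes. 6-β-OH-testosterone measured by LC-MS/MS in MRM mode against an internal standard and quantified from a metabolite standard curve.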

CYP3A4 [3] = target: T1, CYP3A4; test: Determination of IC50 against CYP3A4 by measurement of inhibition of midazolam metabolism (human liver microsomes, 1-hydroxymidazolam by LC-MS/MS); parameters: 0.1 mg/mL human liver microsomes; conditions: 2 μM midazolam, 0.1 mg/mL human liver microsomes
How it was run: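 Human liver microsomes (0.1 mg/mL) incubated 8 min with 2 μM midazolam and 1 mM NADPH in 100 mM potassium phosphate, pH 7.4. 1-Hydroxymidazolam quantified by LC-MS/MS (MRM) as peak area ratio to internal standard against a metabolite standard curve.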

[4] = Baculo. enzyme preparation, read-out: Kiapp (BFC, Baculo.)
[5] = Super. enzyme preparation, read-out: Kiapp (BFC, Super.)

T1 sequence (P08684 whole entry): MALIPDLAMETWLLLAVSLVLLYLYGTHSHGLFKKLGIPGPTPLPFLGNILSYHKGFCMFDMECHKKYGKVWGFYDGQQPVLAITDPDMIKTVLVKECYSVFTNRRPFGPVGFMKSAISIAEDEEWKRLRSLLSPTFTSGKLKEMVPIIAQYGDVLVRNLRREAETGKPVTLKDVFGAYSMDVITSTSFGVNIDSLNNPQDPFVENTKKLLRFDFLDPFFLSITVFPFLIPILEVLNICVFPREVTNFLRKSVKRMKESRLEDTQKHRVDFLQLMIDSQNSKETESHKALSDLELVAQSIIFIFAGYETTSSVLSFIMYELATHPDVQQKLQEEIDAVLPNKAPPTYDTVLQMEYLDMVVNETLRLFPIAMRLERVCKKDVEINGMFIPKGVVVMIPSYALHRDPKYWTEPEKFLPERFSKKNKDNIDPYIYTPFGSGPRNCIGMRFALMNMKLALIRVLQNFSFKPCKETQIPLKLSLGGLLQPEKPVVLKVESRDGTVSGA

Compound	Ki (CYP3A4 [1]; [4]) [nM]	Ki (CYP3A4 [1]; [5]) [nM]	IC50 (CYP3A4 [2]) [nM]	IC50 (CYP3A4 [3]) [nM]
CCCCCN(C)C(=O)c1ccccc1S(=O)(=O)Nc1cnccc1OC [Example 278, 2-{[(4-methoxypyridin-3-yl)amino]sulfonyl}-N-methyl-N-pentylbenzamide]	131	11.9	66	31
COc1ccncc1NS(=O)(=O)c1ccccc1C(=O)N(C)C(C)C [Example 279, N-isopropyl-2-{[(4-methoxypyridin-3-yl)amino]sulfonyl}-N-methylbenzamide]	> 1000	95.2	337	123
CCCCN(C)C(=O)c1ccccc1S(=O)(=O)Nc1cnccc1OC [Example 280, N-butyl-2-{[(4-methoxypyridin-3-yl)amino]sulfonyl}-N-methylbenzamide]	400	52.5	95	39
Cc1cncc(NS(=O)(=O)c2ccccc2C(=O)N(C)C(C)C)c1 [Example 281, N-isopropyl-N-methyl-2-{[(5-methylpyridin-3-yl)amino]sulfonyl}benzamide]	468	42.6	65	31
COc1cncc(NS(=O)(=O)c2ccccc2C(=O)N(C)C(C)C)c1 [Example 282, N-isopropyl-2-{[(5-methoxypyridin-3-yl)amino]sulfonyl}-N-methylbenzamide]	330	57.7	62	49
CN(Cc1ccc(F)c(F)c1)C(=O)c1ccccc1S(=O)(=O)Nc1cccnc1 [Example 284, N-(3,4-difluorobenzyl)-N-methyl-2-[(pyridin-3-ylamino)sulfonyl]benzamide]	99.8	14.2	49	15
COc1cncc(NS(=O)(=O)c2ccccc2C(=O)N(C)Cc2ccc(F)c(F)c2)c1 [Example 285, N-(3,4-difluorobenzyl)-2-{[(5-methoxypyridin-3-yl)amino]sulfonyl}-N-methylbenzamide]	26	7.24	28	19
Cc1cncc(NS(=O)(=O)c2ccccc2C(=O)N(C)Cc2ccc(F)c(F)c2)c1 [Example 286, N-(3,4-difluorobenzyl)-N-methyl-2-{[(5-methylpyridin-3-yl)amino]sulfonyl}benzamide]	27.2	4.06	9.5	7.67
CCOc1cncc(NS(=O)(=O)c2ccccc2C(=O)NC2CCCC2)c1 [Example 287, N-cyclopentyl-2-{[(5-ethoxypyridin-3-yl)amino]sulfonyl}benzamide]	216	47.7	99	43
CCOc1cncc(NS(=O)(=O)c2ccccc2C(=O)NCc2ccc(F)c(C(F)(F)F)c2)c1 [Example 288, 2-{[(5-ethoxypyridin-3-yl)amino]sulfonyl}-N-[4-fluoro-3-(trifluoromethyl)benzyl]benzamide]	2.2	3.08	18	12
CCOc1cncc(NS(=O)(=O)c2ccccc2C(=O)NCC2CC2)c1 [Example 293, N-(cyclopropylmethyl)-2-{[(5-ethoxypyridin-3-yl)amino]sulfonyl}benzamide]	268	58.1	145	81
CCOc1cncc(NS(=O)(=O)c2ccccc2C(=O)NC(C)(C)C)c1 [Example 294, N-(tert-butyl)-2-{[(5-ethoxy-pyridin-3-yl)amino]sulfonyl} benzamide]	135	32.1	57	24
COc1cncc(NS(=O)(=O)c2ccc(Cl)cc2C(=O)NCCC(C)C)c1 [Example 295, 5-chloro-2-{[(5-methoxypyridin-3-yl)amino]sulfonyl}-N-(3-methylbutyl)benzamide]	184	42	231	42
CCOc1cncc(NS(=O)(=O)c2ccccc2C(=O)N2CCCC2)c1 [Example 297, N-(5-ethoxypyridin-3-yl)-2-(pyrrolidin-1-ylcarbonyl)benzenesulfonamide]	444	110	> 750	170
CCOc1cncc(NS(=O)(=O)c2ccccc2C(=O)N2CCCC(C)(C)C2)c1 [Example 298, 2-[(3,3-dimethylpiperidin-1-yl)carbonyl]-N-(5-ethoxypyridin-3-yl)benzenesulfonamide]	58.5	15.6	135	31
CCOc1cncc(NS(=O)(=O)c2ccccc2C(=O)NC2CC2)c1 [Example 301, N-cyclopropyl-2-{[(5-ethoxypyridin-3-yl)amino]sulfonyl}benzamide]	409	152	> 750	140
CCOc1cncc(NS(=O)(=O)c2ccccc2C(=O)NC2CCCCC2)c1 [Example 302, N-cyclohexyl-2-{[(5-ethoxypyridin-3-yl)amino]sulfonyl}benzamide]	78.9	24.5	110	23
COc1cncc(NS(=O)(=O)c2ccc(F)cc2C(=O)NCCC(C)C)c1 [Example 303, 5-fluoro-2-{[(5-methoxypyridin-3-yl)amino]sulfonyl}-N-(3-methylbutyl)benzamide]	118	31.6	156	30
COc1cncc(NS(=O)(=O)c2ccc(F)cc2C(=O)N(C)C(C)C)c1 [Example 304, 5-fluoro-N-isopropyl-2-{[(5-methoxypyridin-3-yl)amino]sulfonyl}-N-methylbenzamide]	536	171	> 750	119
CCOc1cncc(NS(=O)(=O)c2ccccc2C(=O)N2CCOCC2)c1 [Example 305, N-(5-ethoxypyridin-3-yl)-2-(morpholin-4-ylcarbonyl)benzenesulfonamide]	753	270	> 750	347

Continued, values first:

Ki (CYP3A4 [1]; [4]) [nM]	Ki (CYP3A4 [1]; [5]) [nM]	IC50 (CYP3A4 [2]) [nM]	IC50 (CYP3A4 [3]) [nM]	Compound
42.9	3.76	7	9	COc1ccncc1NS(=O)(=O)c1ccccc1C(=O)NCCc1ccccc1C [Example 275, 2-{[(4-methoxypyridin-3-yl)amino]sulfonyl}-N-[2-(2-methylphenyl)ethyl]benzamide]
563	62.9	134	71	COc1ccncc1NS(=O)(=O)c1ccccc1C(=O)NC(C)C1CC1 (stereo not drawn) [Example 276, N-(1-cyclopropylethyl)-2-{[(4-methoxypyridin-3-yl)amino]sulfonyl}benzamide]
459	47.9	65	53	COc1ccncc1NS(=O)(=O)c1ccccc1C(=O)NCCC(C)C [Example 277, 2-{[(4-methoxypyridin-3-yl)amino]sulfonyl}-N-(3-methylbutyl)benzamide]
5.9	4.97	27	15	CCOc1cncc(NS(=O)(=O)c2ccccc2C(=O)N(C)Cc2ccc(F)c(F)c2)c1 [Example 289, N-(3,4-difluorobenzyl)-2-{[(5-ethoxypyridin-3-yl)amino]sulfonyl}-N-methylbenzamide]
14.6	3.94	16	4	CCOc1cncc(NS(=O)(=O)c2ccccc2C(=O)NCc2ccc(F)c(F)c2)c1 [Example 290, N-(3,4-difluorobenzyl)-2-{[(5-ethoxypyridin-3-yl)amino]sulfonyl}benzamide]
4.5	2.98	27	21	CCOc1cncc(NS(=O)(=O)c2ccccc2C(=O)NCc2ccc(Cl)c(Cl)c2)c1 [Example 291, N-(3,4-dichlorobenzyl)-2-{[(5-ethoxypyridin-3-yl)amino]sulfonyl}benzamide]
1.6	0.618	16	< 3	CCOc1cncc(NS(=O)(=O)c2ccccc2C(=O)NCCc2ccccc2C)c1 [Example 292, 2-{[(5-ethoxypyridin-3-yl)amino]sulfonyl}-N-[2-(2-methylphenyl)ethyl]benzamide]
35.8	9.32	90	12	CCOc1cncc(NS(=O)(=O)c2ccccc2C(=O)NCCC(C)C)c1 [Example 296, 2-{[(5-ethoxypyridin-3-yl)amino]sulfonyl}-N-(3-methylbutyl)benzamide]
56.5	20.6	53	26	CCOc1cncc(NS(=O)(=O)c2ccccc2C(=O)NC(C)C2CC2)c1 (stereo not drawn) [Example 299, N-(1-cyclopropylethyl)-2-{[(5-ethoxypyridin-3-yl)amino]sulfonyl}benzamide]
57.6	19.5	39	16	CCOc1cncc(NS(=O)(=O)c2ccccc2C(=O)NC(C)(C)CC)c1 [Example 300, N-(1,1-dimethylpropyl)-2-{[(5-ethoxypyridin-3-yl)amino]sulfonyl}benzamide]
